The text below walks through data of US5821231A, “CS-1 peptidomimetics, compositions and methods of using same” (Cytel Corporation, priority 1995, dated 1998).

Data set [1] has as its system New Zealand white rabbits. The data set is described as follows: Rabbit heterotopic cardiac allograft model. The data set is classed as in vivo. The source says:
New Zealand white female rabbits (Charles River Lab., Saint Laurent, Quebec), between 3.5 and 4 kg underwent heterotopic cardiac transplant following an experimental protocol previously described [Alonso et al., Am. J. Pathol., 87:415-442 (1977); Clausell et al., Circulation, 89:2768-2779 (1994)]. The animals were unselected to favor an HLA-mismatch, the host rabbits were Pasteurella-free and the donors, outbred animals. Both host and donor rabbits were fed Purina 5321-0.5 percent cholesterol diet (Research Diets Inc., New Brunswick, N.J.), a strategy that has proven useful in accelerating the process of allograft arteriopathy [Alonso et al., Am, J. Pathol., 87:415-442 (1977)]. The diet was commenced four days prior to the transplant and continued in the recipient of the transplant until the completion of the experimental period.
The technique of heterotopic cardiac transplantation has been previously described [Clausell et al., Circulation, 89:2768-2779 (1994)]. Briefly, a vertical incision was performed in the anterior aspect of the neck of the recipient rabbit and the left common carotid artery and the ipsilateral external jugular vein were isolated. The cardiac allograft was placed in the neck by anastomosing the aorta end-to-side to the recipient's carotid artery and the pulmonary end-to-side to the recipient's external jugular vein, following a total period of ischemia for the donor hearts of approximately 30 minutes. Postoperative care was in compliance with the Principles of Laboratory Animal Care formulated by the Canadian National Society for Medical Research.
Beginning the day of the transplant, the animals were randomized and treated with either scrambled compound (control group) at 1 mg/kg s.c. or the inhibitor compound at 1 mg/kg s.c. The doses of the compounds were empirically extrapolated to the in vivo model based on preliminary in vitro studies, of Table 1. No other immunosuppression therapy was administered. The grafts were monitored daily by palpation and maintained for 7 to 8 days, a previously described endpoint that was associated with myocardial rejection (impaired cardiac contractility) and development of the allograft arteriopathy in this model [Clausell et al., Circulation, 89:2768-2779 (1994)]. A total of fourteen animals were studied in the control (n=7) and treated (n=7) groups.
The animals were sacrificed using a lethal dose of euthanol (480 mg i.v.) (MTC Pharmaceutical, Cambridge, ON), host and donor hearts were removed, and the coronary arteries were perfused with saline through the aorta, followed by light fixation by perfusion with 2 percent paraformaldehyde (Sigma, St, Louis, Mo.). […] Different sections of the hearts were either saved in 10 percent formalin (BDH Inc., Toronto, ON) for light microscopy studies or immediately frozen in O.T.C. Compound Tissue Tek (Miles Inc., Elkart, Ind.) for specific immunohistochemistry studies.
Three different paraffin-embedded tissue sections from host and donor hearts from both control and treated rabbits were stained by the Movat pentachrome method for light microscopy. Morphometric analysis was performed using a Zeiss microscope attached to a computer-generated video analysis system (Perceptics Inc., NuVision software), as described in Clausell et al., Circulation, 89:2768-2779 (1994). The number of vessels with intimal lesions were counted in all three heart sections from each animal studied and are expressed as a percentage of the total vessel number.
In the host hearts, 999 vessels in the control group and 1054 vessels in the treated group were analyzed. In the donor hearts, 827 vessels in the control group and 617 vessels in the treated group were analyzed. To determine the severity of intimal thickening, the diameter of each traceable vessel in all three sections was measured and the coronary arteries were categorized as small (diameter <100 μm), medium (diameter >100<500 μm) and large (diameter >500 μm). […]

The next data set has as its system asthmatic sheep. The data set is described as follows: Treatment of asthmatic sheep (Ascaris suum antigen, crossover). The data set is classed as in vivo. The note with it: nebulized 1 mg/kg; FIG. 7. As to the method: Six asthmatic sheep were treated in a double blind cross-over study. […] This study was carried out generally as described in Abraham et al., J. Clin. Invest., 93:776-787 (1994).
The inhibitor compound used here was Compound ID No. 896.52, N-phenylacetyl-Leu-Asp-Phe-D-Pro-NH2, with a control compound that comprised the previously described compound having the same residues in a scrambled sequence. The vehicle for the nebulized compounds was phosphate-buffered saline. The compounds were administered at a dose of 1 mg/kg each, twice a day for three days prior to challenge, as well as 0.5 hours prior to and four hours post challenge on day 4. Because this was a crossover study, each animal received one or the other treatment, followed by a rest and then the other treatment. Each animal therefore served as its own control.
Post challenge airway responsiveness was also assayed. Here, specific lung resistance, SRL, returned to baseline values 24 hours after challenge, however, the sheep were hyperresponsive to inhaled carbachol at that time.

For data set [2], the system named is Porcine peripheral blood lymphocytes. The data set is described as follows: In vitro porcine allograft model: transendothelial lymphocyte migration. The data set is classed as cell-based. The note with it: 10 μg/ml in the medium; IL-1β-stimulated SMC. The method, then:
A similar study was carried out in vitro using porcine coronary artery endothelial cells (EC; as are present in the IEL) and smooth muscle cells (SMC; as are present in the medial layer of the artery). The two cell types were cultured using a membrane transwell system, with the SMC on the bottom layer in M-199 medium (Gibco Labs.). The SMC were stimulated with 100 ng/ml of interleukin-1β (IL-1β) for 24 hours prior to the start of the assay. Porcine peripheral blood lymphocytes were separated by Ficoll-Hypaque, radiolabeled and incubated overnight (about 18 hours) on the EC.

A further data set has as its system BALB/c mice. The data set is described as follows: Adoptive transfer delayed type hypersensitivity in mice (oxazolone). In kind it is in vivo, mouse. The method, then:
An adoptive transfer delayed-type hypersensitivity murine model has been developed using splenic T cells primed to oxazolone. This model is described in Elices et al., Clin. Exp. Rheum., 11(Suppl. 8):577-580 (1993), whose procedures were followed here.
Thus, BALB/c mice were shaved on the belly and painted (50 μl on the belly and 5 μl on each paw) with three percent oxazolone in acetone/olive oil (4:1) at days zero and 1. At day 5, the mice were sacrificed, their spleens removed, and splenic T cells were obtained via nylon wool columns.
Normal saline or saline containing 25×10^6 /animal of the oxazolone-immune T cells were separately injected into naive mice. The mice were then challenged by painting 10 μl of 2 percent oxazolone onto one ear each. All procedures were carried out under sterile conditions and in endotoxin-free buffers.
Prior to challenge or saline injection, the mice were implanted with pumps that subcutaneously administered normal saline, normal saline containing the compound, Compound ID No. 896.52, N-phenylacetyl-Leu-Asp-Phe-D-Pro-NH2, or normal saline containing a compound with a scrambled sequence continually at 6 mg/kg/day for a 24-hour time period. The swelling diameter at the site of challenge or saline injection was measured with a microcaliper 24 hours thereafter.
An expanded study was carried out as described above except that a scrambled compound control was not used as a control for further inhibitor compounds of Table 1 with larger groups of mice. Statistical analyses were carried out versus injection of vehicle alone.

A short description of data set [3]: Retention of potency in PBS containing 10 percent mouse or human serum. The data set is classed as in vitro ADME. The note with it: 24 hours in PBS at 7.2-7.4 containing 10 percent mouse or human serum.
A further data set concerns SJL/J mice. The experiment in a line: Experimental autoimmune encephalomyelitis in mice. The data set is classed as in vivo. The note with it: 1 mg/mouse i.p. at days 8 and 9; FIG. 6; versus control compound. As to the method:
EAE was induced in female SJL/J mice (8 to 14 weeks old) by immunization on day zero with 50 μg of a compound corresponding to positions 139-151 of PLP emulsified in a 1:1 mixture of PBS and complete Freund's adjuvant (CFA). Each mouse was injected with 0.2 ml of the adjuvant emulsion subcutaneously (s.c.) at two sites in the hind flank. All mice received 10^7 killed Bordetella pertussis units in 100 μl were injected intravenously 24 to 72 hours later.
Mice were observed daily, beginning at day 8 for clinical signs of EAE, and disease was scored on a scale of 0-5 as: 0=no disease; 1=floppy tail; 2=moderate hind limb weakness; 3=paraparesis; 4=paraplegis with moderate forelimb weakness; 5=qualdriplegis or premoribund state.
The inhibitor compound, Compound ID No. 896.52, N-phenylacetyl-Leu-Asp-Phe-D-Pro-NH2 was administered intraperitoneally at 1 mg/mouse in 0.2 ml of incomplete Freund's adjuvant at days 8 and 9. A compound having a scrambled sequence [N-phenylacetyl-Asp-Leu-Phe-D-Pro-NH2 ] was similarly administered to serve as a control.
Summed or averaged scores for clinical signs were plotted vs. time. The area under the resulting curves was calculated between day 8 and day 35 to calculate percentage inhibition of EAE by an inhibitor compound. The percent inhibition was calculated as follows:
[…]

Square brackets hold non-standard residues; d marks the D form. Peptide text beside a SMILES is read from it. * marks the point of attachment. PhAc = O=C(Cc1ccccc1)*

Turning to `CC(C)C[C@H](NC(=O)Cc1ccccc1)C(=O)N[C@@H](CC(=O)O)C(=O)N[C@@H](Cc1ccccc1)C(=O)N1CCC[C@@H]1C(N)=O` [896.52, N-phenylacetyl-Leu-Asp-Phe-D-Pro-NH2] (PhAc-LDF[dP]-NH2), in data set [1] (donor heart, 1 mg/kg s.c.), the “Vessel Intimal Thickening: Percent of Vessels” value turned out to be 35% and the “Vessel Intimal Thickening: Severity (Percent of Vessel area)” value is 16%. In data set [1] (rabbit own host heart), the “Baseline of incidence of intimal thickening” value is reported as 12% and the “Baseline of severity of intimal thickening” value is recorded as 12%. For the same compound, in the data set with asthmatic sheep, the “change from baseline specific lung resistance (SRL) on challenge” value is “less of a change from baseline specific lung resistance”. The “reduction of transendothelial lymphocyte migration” value in data set [2] is “about 30%”. The “Percent Inhibition (post-challenge swelling)” value with BALB/c mice (expanded study, versus vehicle alone) is on record as 36%. In addition, in the data set on BALB/c mice (initial study, 6 mg/kg/day s.c. pump, 24-hour, FIG. 5), the “reduction of inflammation (swelling diameter at challenge site)” value was “reduced this type of CS-1/VLA-4-mediated immunoinflammation”. The “loss of potency in serum” value in data set [3] is reported as “no loss of potency”. For the same compound, the “clinical signs of EAE” value in the data set on SJL/J mice is “marked improvement in clinical signs”.
